# Tested on: NCI-H1703 cells
# Test: GLS Cell Proliferation Assay (NCI-H1703 cell proliferation)
# Assay type: cell-based
# Details: Homo sapiens, NCI-H1703, 120 h, NCI-H1703 cells, 5 days; read-out: Assay c) Prolif Mean IC50
# Excerpt: The following assays were used to measure the effects of the compounds described herein: a) GLS Enzyme Potency Assay; b) GLS Cell Potency Assay; c) GLS Cell Proliferation Assay. During the description of the assays, generally: • i. The following abbreviations have been used: CO2=Carbon dioxide; DMEM=Dulbecco's Modified Eagle Medium; DMSO=Dimethyl sulphoxide; EDTA=Ethylenediaminetetraacetic acid; EGTA=Ethylene glycol tetraacetic acid; FCS=Foetal calf serum; h=Hour(s); NBS=Non-binding surface; SDS=Sodium dodecyl sulphate; TRIS=Tris(Hydroxymethyl)aminomethane. • ii. IC50 values were calculated using a smart fitting model in Genedata.
# Assay c): GLS Cell Proliferation Assay
# The ability of compounds to inhibit cell growth was measured using a 384 well plate NCI-H1703 cell proliferation assay. NCI-H1703 cells were grown in phenol red free RPMI1640, 10% FCS and 2 mM glutamine and seeded at a density of 750 cells per well in 40 μl of growth medium into clear-bottom 384 well assay plates (Corning product code 3712) and incubated for 24 h at 37° C., 5% CO2. […] DMSO concentration was maintained at 0.3% by back filling with DMSO solution. Plates were incubated for 5 days at 37° C., 5% CO2, Sytox Green and Saponin added to final concentration of 2 μM and 0.25% respectively and incubated for 6 h prior to analysis. […] IC50 values were calculated by curve fitting to max inhibition of day zero growth using GeneData software analysis.
row,Compound,IC50
1,"COc1cc([C@H](OC)C(=O)Nc2nnc(N[C@@H]3CCN(c4cccnn4)C3)s2)cc(N2CC(F)C2)c1 (single isomer, unassigned) [10(b)]",43.4 nM
2,"CO[C@H](C(=O)Nc1nnc(N[C@@H]2CCN(c3cccnn3)C2)s1)c1ccc(F)c(N2CC(F)C2)c1 (single isomer, unassigned) [Example 8(a)]",57.6 nM
3,"COc1cc(OC(F)(F)F)cc([C@H](OC)C(=O)Nc2nnc(N[C@@H]3CCN(c4cccnn4)C3)s2)c1 (single isomer, unassigned) [Example 11(a)]",1.7 nM
4,"CCO[C@H](C(=O)Nc1nnc(N[C@@H]2CCN(c3cccnn3)C2)s1)c1cccc(N2CC(OC)C2)c1 [Example 22(a), (2S)-2-ethoxy-2-[3-(3-methoxyazetidin-1-yl)phenyl]-N-[5-[[(3R)-1-pyridazin-3-ylpyrrolidin-3-yl]amino]-1,3,4-thiadiazol-2-yl]acetamide]",5.35 nM

# Same assay, conditions: NCI-H1703 cells, 5 days; read-out: Assay c) Prolif Mean IC50
row,Compound,IC50
1,"CO[C@H](C(=O)Nc1nnc(N[C@@H]2CCN(c3cccnn3)C2)s1)c1cccc(N2CC(F)(F)C2)c1 (single isomer, unassigned) [2(b)]",28.6 nM
2,"COC[C@H](C(=O)Nc1nnc(N[C@@H]2CCN(c3cccnn3)C2)s1)c1cccc(OC)c1 (single isomer, unassigned) [5(b)]",120 nM
3,"COC1CN(c2cccc([C@H](OC)C(=O)Nc3nnc(N[C@@H]4CCN(c5ccc(F)nn5)C4)s3)c2)C1 (single isomer, unassigned) [9(b)]",122 nM
4,"COc1cc(OC(F)(F)F)cc([C@H](OC)C(=O)Nc2nnc(N[C@@H]3CCN(c4cccnn4)C3)s2)c1 (single isomer, unassigned) [11(b)]",1.04 nM
5,"COC1CN(c2cccc([C@H](OC)C(=O)Nc3nnc(N[C@@H]4CCN(c5ccc(C)nn5)C4)s3)c2)C1 (single isomer, unassigned) [12(b)]",524 nM
6,"COC1CN(c2cccc([C@H](OC)C(=O)Nc3nnc(N[C@@H]4CCN(c5nccnn5)C4)s3)c2)C1 (single isomer, unassigned) [13(b)]",497 nM
7,"CCO[C@H](C(=O)Nc1nnc(N[C@@H]2CCN(c3cccnn3)C2)s1)c1cccc(OC(F)F)c1 (single isomer, unassigned) [17(b)]",34.9 nM
8,"CCO[C@H](C(=O)Nc1nnc(N[C@@H]2CCN(c3cccnn3)C2)s1)c1cccc(OC(F)(F)F)c1 (single isomer, unassigned) [19(b)]",7.59 nM
9,"CO[C@H](C(=O)Nc1nnc(N[C@@H]2CCN(c3cccnn3)C2)s1)c1ccc(F)c(OC(F)(F)F)c1 (single isomer, unassigned) [20(b)]",2.65 nM
10,"CO[C@H](C(=O)Nc1nnc(N[C@@H]2CCN(c3cccnn3)C2)s1)c1cccc(N2CC(F)(F)C2)c1 (single isomer, unassigned) [Example 2(a)]",2.5 nM
11,"COC[C@H](C(=O)Nc1nnc(N[C@@H]2CCN(c3cccnn3)C2)s1)c1cccc(OC)c1 (single isomer, unassigned) [Example 5(a)]",11.7 nM
12,"CCO[C@H](C(=O)Nc1nnc(N[C@@H]2CCN(c3cccnn3)C2)s1)c1cc(OC)cc(OC)c1 (single isomer, unassigned) [Example 6(a)]",2.2 nM
13,"COC1CN(c2cccc([C@H](OC)C(=O)Nc3nnc(N[C@@H]4CCN(c5ccc(F)nn5)C4)s3)c2)C1 (single isomer, unassigned) [Example 9(a)]",4.9 nM
14,"COC1CN(c2cccc([C@H](OC)C(=O)Nc3nnc(N[C@@H]4CCN(c5ccc(C)nn5)C4)s3)c2)C1 (single isomer, unassigned) [Example 12(a)]",32.9 nM
15,"CCO[C@H](C(=O)Nc1nnc(N[C@@H]2CCN(c3cccnn3)C2)s1)c1cccc(OC(F)F)c1 (single isomer, unassigned) [Example 17(a)]",1.56 nM
16,"CCO[C@H](C(=O)Nc1nnc(N[C@@H]2CCN(c3cccnn3)C2)s1)c1cccc(OC(F)(F)F)c1 (single isomer, unassigned) [Example 19(a)]",2.61 nM
17,"CO[C@H](C(=O)Nc1nnc(N[C@@H]2CCN(c3cccnn3)C2)s1)c1ccc(F)c(OC(F)(F)F)c1 (single isomer, unassigned) [Example 20(a)]",6.57 nM
